Experimental data published in patent publication US7067277B1, “Chimeric G proteins and uses thereof” (H. Lundbeck A/S, priority 1999, dated 2006).

Molecular target: T1, Human NPFF1 (Homo sapiens, UniProt Q9GZQ6)
T1 construct: linearized plasmids or PCR products containing the complete coding region of the genes; expressed in transfected cells; host or cells: Xenopus laevis oocytes (receptor cRNA injected)
Assay: Cl- current recording in Xenopus oocytes expressing GPCR and chimeric G protein
Format: cell-based
Conditions: oocytes injected with 50 nl of 10 mM EGTA
Experimental: Oocytes were harvested from Xenopus laevis and injected with mRNA transcripts as previously described (Quick and Lester, 1994; Smith et al., 1997). Receptor and chimeric G protein α subunit RNA transcripts were synthesized using the T7 polymerase (“Message Machine,” Ambion) from linearized plasmids or PCR products containing the complete coding region of the genes. Oocytes were injected with 5–25 ng synthetic receptor RNA and incubated for 3–8 days at 17 degrees. Three to eight hours prior to recording, oocytes were injected with 500 pg chimeric Gα subunit mRNA. Dual electrode voltage clamp (Axon Instruments Inc.) was performed using 3 M KCl-filled glass microelectrodes having resistances of 1–2 MOhm. Unless otherwise specified, oocytes were voltage clamped at a holding potential of −80 mV. During recordings, oocytes were bathed in continuously flowing (1–3 ml/min) medium containing 96 mM NaCl, 2 mM KCl, 1.8 mM CaCl2, 1 mM MgCl2, and 5 mM HEPES, pH 7.5 (ND96). Drugs were applied by local perfusion from a 10 μl glass capillary tube fixed at a distance of 0.5 mm from the oocyte. Experiments were carried out at room temperature. All values are expressed as mean±standard error of the mean.

T1 sequence (Q9GZQ6 whole entry): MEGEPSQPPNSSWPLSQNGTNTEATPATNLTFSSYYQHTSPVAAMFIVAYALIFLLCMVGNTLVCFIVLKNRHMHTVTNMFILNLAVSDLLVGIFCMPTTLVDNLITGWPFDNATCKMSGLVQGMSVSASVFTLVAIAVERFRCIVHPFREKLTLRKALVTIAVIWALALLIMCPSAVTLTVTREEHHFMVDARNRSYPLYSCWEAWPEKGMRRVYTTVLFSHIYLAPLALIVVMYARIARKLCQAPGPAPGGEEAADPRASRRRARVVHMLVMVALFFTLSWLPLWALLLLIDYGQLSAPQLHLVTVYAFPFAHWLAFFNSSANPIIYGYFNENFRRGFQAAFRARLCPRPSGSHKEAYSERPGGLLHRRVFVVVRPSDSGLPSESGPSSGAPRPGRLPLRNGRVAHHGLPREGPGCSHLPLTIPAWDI

Question: How did the “currents stimulated by NPFF in oocytes expressing NPFF1 and cGαq/z5” value turn out when O=C(O)CN(CCOCCOCCN(CC(=O)O)CC(=O)O)CC(=O)O [EGTA, reference compound] was run?
Answer: blocked
